Source: PubChem BioAssay (NCI)
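Five concentrations, 48 hours, 96-well plates. TGI: total growth inhibition.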

Experiments:
Assay in all cases: growth of human tumour cells (NCI), 48 h
OVCAR-4 ovarian = system: OVCAR-4 ovarian
COLO 205 colon = system: COLO 205 colon
CCRF-CEM leukemia = system: CCRF-CEM leukemia
HOP-62 NSCLC = system: HOP-62 NSCLC
SNB-19 CNS = system: SNB-19 CNS
SK-OV-3 ovarian = system: SK-OV-3 ovarian
DMS 273 small cell lung = system: DMS 273 small cell lung
MOLT-4 leukemia = system: MOLT-4 leukemia
IGROV1 ovarian = system: IGROV1 ovarian
SR leukemia = system: SR leukemia
SK-MEL-28 melanoma = system: SK-MEL-28 melanoma
SK-MEL-5 melanoma = system: SK-MEL-5 melanoma
M19-MEL melanoma = system: M19-MEL melanoma
OVCAR-3 ovarian = system: OVCAR-3 ovarian
A549 NSCLC = system: A549 NSCLC
SN12C renal = system: SN12C renal
UACC-62 melanoma = system: UACC-62 melanoma
U251 CNS = system: U251 CNS
SNB-75 CNS = system: SNB-75 CNS
HCT-116 colon = system: HCT-116 colon
UACC-257 melanoma = system: UACC-257 melanoma
NCI-H522 lung = system: NCI-H522 lung
HCC-2998 colon = system: HCC-2998 colon
HCT-15 colon = system: HCT-15 colon
SW-620 colon = system: SW-620 colon
HT29 colon = system: HT29 colon
M14 melanoma = system: M14 melanoma
ACHN renal = system: ACHN renal
XF 498 CNS = system: XF 498 CNS
SF-539 CNS = system: SF-539 CNS
LXFL 529 NSCLC = system: LXFL 529 NSCLC
NCI-H23 lung = system: NCI-H23 lung
786-0 renal = system: 786-0 renal
OVCAR-8 ovarian = system: OVCAR-8 ovarian
TK-10 renal = system: TK-10 renal
HL-60(TB) leukemia = system: HL-60(TB) leukemia
SNB-78 CNS = system: SNB-78 CNS
K-562 leukemia = system: K-562 leukemia
SF-268 CNS = system: SF-268 CNS
KM20L2 colon = system: KM20L2 colon
SF-295 CNS = system: SF-295 CNS
RXF 393 renal = system: RXF 393 renal
NCI-H226 lung = system: NCI-H226 lung
UO-31 renal = system: UO-31 renal
MALME-3M melanoma = system: MALME-3M melanoma
DLD-1 colon = system: DLD-1 colon
KM12 colon = system: KM12 colon
SK-MEL-2 melanoma = system: SK-MEL-2 melanoma
HOP-92 NSCLC = system: HOP-92 NSCLC
NCI-H460 lung = system: NCI-H460 lung
EKVX NSCLC = system: EKVX NSCLC
LOX IMVI melanoma = system: LOX IMVI melanoma
A498 renal = system: A498 renal
RPMI-8226 leukemia = system: RPMI-8226 leukemia
OVCAR-5 ovarian = system: OVCAR-5 ovarian
CAKI-1 renal = system: CAKI-1 renal
DMS 114 small cell lung = system: DMS 114 small cell lung

Which TGI (OVCAR-4 ovarian) does the source give for `CCCOP1(=O)C=C(O)C(Cl)=C(C)C1` (stereo not given) here?
The TGI was greater than 100 µM.

And the TGI (COLO 205 colon)?
Its TGI is greater than 100 µM.

What about the TGI (CCRF-CEM leukemia) of the same molecule?
Its TGI is greater than 100 µM.

What about the TGI (HOP-62 NSCLC) of the same molecule?
The TGI was greater than 100 µM.

And the TGI (SNB-19 CNS)?
Its TGI is greater than 100 µM.

And the TGI (SK-OV-3 ovarian)?
The TGI was greater than 100 µM.

What about the TGI (DMS 273 small cell lung) of the same molecule?
The TGI was greater than 100 µM.

And the TGI (MOLT-4 leukemia)?
Its TGI is greater than 100 µM.

What about the TGI (IGROV1 ovarian) of the same molecule?
Its TGI is greater than 100 µM.

What about the TGI (SR leukemia) of the same molecule?
The TGI was greater than 100 µM.

What about the TGI (SK-MEL-28 melanoma) of the same molecule?
Its TGI is greater than 100 µM.

What about the TGI (SK-MEL-5 melanoma) of the same molecule?
The TGI was greater than 100 µM.

What about the TGI (M19-MEL melanoma) of the same molecule?
Its TGI is greater than 100 µM.

What about the TGI (OVCAR-3 ovarian) of the same molecule?
Its TGI is greater than 100 µM.

What about the TGI (A549 NSCLC) of the same molecule?
Its TGI is greater than 100 µM.

And the TGI (SN12C renal)?
Its TGI is greater than 100 µM.

And the TGI (UACC-62 melanoma)?
Its TGI is greater than 100 µM.

What about the TGI (U251 CNS) of the same molecule?
Its TGI is greater than 100 µM.

And the TGI (SNB-75 CNS)?
Its TGI is greater than 100 µM.

And the TGI (HCT-116 colon)?
Its TGI is greater than 100 µM.

And the TGI (UACC-257 melanoma)?
Its TGI is greater than 100 µM.

What about the TGI (NCI-H522 lung) of the same molecule?
The TGI was greater than 100 µM.

And the TGI (HCC-2998 colon)?
The TGI was greater than 100 µM.

And the TGI (HCT-15 colon)?
The TGI was greater than 100 µM.

And the TGI (SW-620 colon)?
The TGI was greater than 100 µM.

What about the TGI (HT29 colon) of the same molecule?
Its TGI is greater than 100 µM.

What about the TGI (M14 melanoma) of the same molecule?
Its TGI is greater than 100 µM.

What about the TGI (ACHN renal) of the same molecule?
Its TGI is greater than 100 µM.

And the TGI (XF 498 CNS)?
Its TGI is greater than 100 µM.

What about the TGI (SF-539 CNS) of the same molecule?
The TGI was greater than 100 µM.

What about the TGI (LXFL 529 NSCLC) of the same molecule?
Its TGI is greater than 100 µM.

And the TGI (NCI-H23 lung)?
The TGI was greater than 100 µM.

And the TGI (786-0 renal)?
The TGI was greater than 100 µM.

And the TGI (OVCAR-8 ovarian)?
Its TGI is greater than 100 µM.

And the TGI (TK-10 renal)?
The TGI was greater than 100 µM.

What about the TGI (HL-60(TB) leukemia) of the same molecule?
Its TGI is greater than 100 µM.

What about the TGI (SNB-78 CNS) of the same molecule?
The TGI was greater than 100 µM.

What about the TGI (K-562 leukemia) of the same molecule?
Its TGI is greater than 100 µM.

What about the TGI (SF-268 CNS) of the same molecule?
The TGI was greater than 100 µM.

And the TGI (KM20L2 colon)?
The TGI was greater than 100 µM.

And the TGI (SF-295 CNS)?
Its TGI is greater than 100 µM.

And the TGI (RXF 393 renal)?
Its TGI is greater than 100 µM.

And the TGI (NCI-H226 lung)?
The TGI was greater than 100 µM.

What about the TGI (UO-31 renal) of the same molecule?
The TGI was greater than 100 µM.

What about the TGI (MALME-3M melanoma) of the same molecule?
Its TGI is greater than 100 µM.

And the TGI (DLD-1 colon)?
Its TGI is greater than 100 µM.

What about the TGI (KM12 colon) of the same molecule?
Its TGI is greater than 100 µM.

What about the TGI (SK-MEL-2 melanoma) of the same molecule?
Its TGI is greater than 100 µM.

What about the TGI (HOP-92 NSCLC) of the same molecule?
Its TGI is greater than 100 µM.

What about the TGI (NCI-H460 lung) of the same molecule?
The TGI was greater than 100 µM.

And the TGI (EKVX NSCLC)?
The TGI was greater than 100 µM.

And the TGI (LOX IMVI melanoma)?
The TGI was greater than 100 µM.

For `CCOP(=S)(OCC)Oc1ccc2c(c1)OC(=O)C1(Cl)C2(C)C2(Cl)C(=O)Oc3cc(OP(=S)(OCC)OCC)ccc3C12C` (stereo not given), which TGI (OVCAR-4 ovarian) is on record?
Its TGI is 24.4 µM.

What about the TGI (COLO 205 colon) of the same molecule?
The TGI was 34.3 µM.

And the TGI (CCRF-CEM leukemia)?
The TGI was 41.1 µM.

And the TGI (HOP-62 NSCLC)?
The TGI was 40.3 µM.

And the TGI (SNB-19 CNS)?
The TGI was 15.6 µM.

What about the TGI (A498 renal) of the same molecule?
The TGI was 63.7 µM.

And the TGI (DMS 273 small cell lung)?
The TGI was 38.1 µM.

What about the TGI (MOLT-4 leukemia) of the same molecule?
The TGI was 66.6 µM.

What about the TGI (IGROV1 ovarian) of the same molecule?
Its TGI is 38.7 µM.

What about the TGI (SK-MEL-28 melanoma) of the same molecule?
The TGI was 31.1 µM.

What about the TGI (SK-MEL-5 melanoma) of the same molecule?
The TGI was 31.7 µM.

What about the TGI (M19-MEL melanoma) of the same molecule?
Its TGI is 33.9 µM.

What about the TGI (OVCAR-3 ovarian) of the same molecule?
The TGI was 28.1 µM.

And the TGI (A549 NSCLC)?
Its TGI is 74.1 µM.

And the TGI (SN12C renal)?
Its TGI is 39.3 µM.

What about the TGI (UACC-62 melanoma) of the same molecule?
The TGI was 26.6 µM.

What about the TGI (U251 CNS) of the same molecule?
Its TGI is 20 µM.

What about the TGI (SNB-75 CNS) of the same molecule?
The TGI was 34.3 µM.

And the TGI (RPMI-8226 leukemia)?
Its TGI is 52.8 µM.

And the TGI (HCT-116 colon)?
Its TGI is 25 µM.

And the TGI (UACC-257 melanoma)?
The TGI was 37.2 µM.

What about the TGI (NCI-H522 lung) of the same molecule?
Its TGI is 22.3 µM.

What about the TGI (HCC-2998 colon) of the same molecule?
Its TGI is 33.9 µM.

And the TGI (HCT-15 colon)?
The TGI was 41.6 µM.

And the TGI (SW-620 colon)?
The TGI was 33.3 µM.

And the TGI (HT29 colon)?
The TGI was 29.9 µM.

And the TGI (M14 melanoma)?
Its TGI is 33.7 µM.

And the TGI (ACHN renal)?
Its TGI is 43.4 µM.

And the TGI (XF 498 CNS)?
The TGI was 36.2 µM.

And the TGI (SF-539 CNS)?
Its TGI is 24.7 µM.

And the TGI (LXFL 529 NSCLC)?
The TGI was 21.1 µM.

What about the TGI (786-0 renal) of the same molecule?
The TGI was 44.9 µM.

What about the TGI (OVCAR-8 ovarian) of the same molecule?
Its TGI is 37.2 µM.

What about the TGI (TK-10 renal) of the same molecule?
The TGI was 61.8 µM.

And the TGI (HL-60(TB) leukemia)?
The TGI was 34.4 µM.

What about the TGI (SNB-78 CNS) of the same molecule?
Its TGI is 49.4 µM.

What about the TGI (K-562 leukemia) of the same molecule?
The TGI was 77.3 µM.

And the TGI (SF-268 CNS)?
The TGI was 21 µM.

What about the TGI (KM20L2 colon) of the same molecule?
The TGI was 33.4 µM.

And the TGI (SF-295 CNS)?
The TGI was 29.7 µM.

What about the TGI (RXF 393 renal) of the same molecule?
The TGI was 25.8 µM.

What about the TGI (NCI-H226 lung) of the same molecule?
Its TGI is 31.1 µM.

What about the TGI (UO-31 renal) of the same molecule?
Its TGI is 33.7 µM.

What about the TGI (OVCAR-5 ovarian) of the same molecule?
Its TGI is 33.3 µM.

And the TGI (CAKI-1 renal)?
The TGI was 41.8 µM.

What about the TGI (MALME-3M melanoma) of the same molecule?
The TGI was 43.8 µM.

What about the TGI (DLD-1 colon) of the same molecule?
The TGI was 33.3 µM.

And the TGI (KM12 colon)?
The TGI was 30.7 µM.

What about the TGI (SK-MEL-2 melanoma) of the same molecule?
The TGI was 42.3 µM.

What about the TGI (DMS 114 small cell lung) of the same molecule?
The TGI was 30 µM.

And the TGI (NCI-H460 lung)?
Its TGI is 36.6 µM.

What about the TGI (EKVX NSCLC) of the same molecule?
Its TGI is 55.5 µM.

What about the TGI (LOX IMVI melanoma) of the same molecule?
Its TGI is 37.5 µM.
